Assay results as given in PubChem BioAssay (NCI).
Several values for one entry are separate records, joined by “and”; a condition that tells them apart may be missing. Identical values can stand only once.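 How tested: cells in 96-well plates exposed to compound for 48 hours at five concentrations. Here, GI50 denotes the concentration required for 50% inhibition of growth. TGI is the concentration that stops growth completely.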 Where a SMILES comes first, the peptide text is derived from it. [ ]: non-standard residue; d: D form. The star is where a group is joined. ξ: configuration not given here. NMeF = CN[C@@H](Cc1ccccc1)C(=O)O; NMeN = CN[C@@H](CC(N)=O)C(=O)O; NMeV = CN[C@H](C(=O)O)C(C)C; ξNMeV = CNC(C(=O)O)C(C)C; Boc = CC(C)(C)OC(=O)*; ξNMeA = CNC(C)C(=O)O; ξV = CC(C)C(N)C(=O)O

What was measured:
Assay in all cases: NCI tumour cell line growth inhibition, 48 h
SK-MEL-5 melanoma = test system: SK-MEL-5 melanoma
786-0 renal = test system: 786-0 renal
HL-60(TB) leukemia = test system: HL-60(TB) leukemia
SW-620 colon = test system: SW-620 colon
UACC-257 melanoma = test system: UACC-257 melanoma
XF 498 CNS = test system: XF 498 CNS
T-47D breast = test system: T-47D breast
SK-OV-3 ovarian = test system: SK-OV-3 ovarian
SK-MEL-2 melanoma = test system: SK-MEL-2 melanoma
SNB-78 CNS = test system: SNB-78 CNS
LXFL 529 NSCLC = test system: LXFL 529 NSCLC
SF-539 CNS = test system: SF-539 CNS
K-562 leukemia = test system: K-562 leukemia
OVCAR-8 ovarian = test system: OVCAR-8 ovarian
OVCAR-4 ovarian = test system: OVCAR-4 ovarian
LOX IMVI melanoma = test system: LOX IMVI melanoma
MDA-N = test system: MDA-N
SK-MEL-28 melanoma = test system: SK-MEL-28 melanoma
NCI-H23 lung = test system: NCI-H23 lung
UO-31 renal = test system: UO-31 renal
IGROV1 ovarian = test system: IGROV1 ovarian
NCI-H522 lung = test system: NCI-H522 lung
KM20L2 colon = test system: KM20L2 colon
SNB-75 CNS = test system: SNB-75 CNS
ACHN renal = test system: ACHN renal
COLO 205 colon = test system: COLO 205 colon
SR leukemia = test system: SR leukemia
RPMI-8226 leukemia = test system: RPMI-8226 leukemia
A549 NSCLC = test system: A549 NSCLC
BT-549 breast = test system: BT-549 breast
SN12C renal = test system: SN12C renal
DMS 114 small cell lung = test system: DMS 114 small cell lung
M14 melanoma = test system: M14 melanoma
SF-295 CNS = test system: SF-295 CNS

`COC(=O)C(C)N(C)C(=O)[C@H](CC(N)=O)N(C)C(=O)[C@@H]1CCCN1C(=O)[C@H](C(C)C)N(C)C(=O)C(C(C)C)N(C)C(=O)[C@H](Cc1ccccc1)N(C)C(=O)C(NC(=O)OC(C)(C)C)C(C)C` (stereo partly drawn) (Boc-[ξV][NMeF][ξNMeV][NMeV]P[NMeN][ξNMeA]-OMe) was tested, and the GI50 (SK-MEL-5 melanoma) was 15.2 µM, the TGI (SK-MEL-5 melanoma) was 50 µM and 28.5 µM and the GI50 (786-0 renal) was 29.7 µM. For the same compound, the TGI (786-0 renal) was 50 µM and > 100 µM, the GI50 (HL-60(TB) leukemia) was 4.54 µM and the TGI (HL-60(TB) leukemia) was 44.7 µM and 17.4 µM. For the same compound, the GI50 (SW-620 colon) was 13 µM, the TGI (SW-620 colon) was 50 µM and 25.7 µM and the GI50 (UACC-257 melanoma) was 19.4 µM. The TGI (UACC-257 melanoma) was 50 µM and 39.4 µM, the TGI (XF 498 CNS) was 28.9 µM and the TGI (T-47D breast) was 50 µM. For the same compound, the GI50 (SK-OV-3 ovarian) was 29.4 µM, the TGI (SK-OV-3 ovarian) was 50 µM and > 100 µM and the TGI (SK-MEL-2 melanoma) was 20.1 µM and 22.9 µM. For the same compound, the TGI (SNB-78 CNS) was 40.4 µM, the TGI (LXFL 529 NSCLC) was 10.3 µM and the GI50 (SF-539 CNS) was 18.1 µM. For the same compound, the TGI (SF-539 CNS) was 50 µM and 32.4 µM, the GI50 (K-562 leukemia) was 21 µM and the TGI (K-562 leukemia) was 50 µM and 57.2 µM. The TGI (OVCAR-8 ovarian) was 31.3 µM, the GI50 (OVCAR-4 ovarian) was 31.1 µM and the TGI (OVCAR-4 ovarian) was > 50 µM and 87.5 µM. The GI50 (LOX IMVI melanoma) was 3.1 µM, the TGI (LOX IMVI melanoma) was 20.7 µM and 19.2 µM and the TGI (MDA-N) was 50 µM. The TGI (SK-MEL-28 melanoma) was 50 µM and 30.5 µM, the GI50 (NCI-H23 lung) was 20.4 µM and the TGI (NCI-H23 lung) was 50 µM and 40.4 µM. For the same compound, the GI50 (UO-31 renal) was 17.3 µM, the TGI (UO-31 renal) was 50 µM and 31.1 µM and the GI50 (IGROV1 ovarian) was 16.2 µM. The TGI (IGROV1 ovarian) was 50 µM and 29.8 µM, the TGI (NCI-H522 lung) was 50 µM and 29.8 µM and the TGI (KM20L2 colon) was > 100 µM. The GI50 (SNB-75 CNS) was 17.2 µM, the TGI (SNB-75 CNS) was 21.1 µM and 31.9 µM and the GI50 (ACHN renal) was > 100 µM. For the same compound, the TGI (ACHN renal) was > 100 µM, the GI50 (COLO 205 colon) was 17.5 µM and the TGI (COLO 205 colon) was 50 µM and 35.6 µM. The GI50 (SR leukemia) was 0.005 µM, the TGI (SR leukemia) was 50 µM and 21.6 µM and the TGI (RPMI-8226 leukemia) was 41.9 µM. For the same compound, the GI50 (A549 NSCLC) was > 100 µM, the TGI (A549 NSCLC) was > 100 µM and the TGI (BT-549 breast) was 32.3 µM. The GI50 (SN12C renal) was 17.4 µM, the TGI (SN12C renal) was 50 µM and 33.5 µM and the TGI (DMS 114 small cell lung) was 17.1 µM. The TGI (M14 melanoma) was 50 µM and 30.6 µM and the GI50 (SF-295 CNS) was 32.8 µM.
